Data reported in US20160355456A1, “PLANT EXTRACTS AND USE THEREOF” (TAKASAGO INTERNATIONAL CORPORATION, priority 2007, published 2016).

Assays:
Format in all cases: biochemical
[1] = Anti-oxidation activity test (DPPH radical elimination ability); details: Trolox equivalent amount; sample 100 mg/l in 50% v/v ethanol, 1 mM DPPH, 30 minutes, absorbance 520 nm
Description: As the anti-oxidation activity, to what extent it can eliminate DPPH (1,1-diphenyl-2-picrylhydrazyl) (mfd. by Tokyo Chemical Industry) radicals was evaluated by an absorptiometric method (520 nm). Its illustrative method is as the following anti-oxidation activity measuring method.
Used as the standard of radical elimination ability was Trolox (218940050: mfd. by ACROS ORGANICS) prepared from α-tocopherol which is a typical antioxidant substance by releasing its side chain to provide water-soluble nature. By preparing a calibration curve of Trolox concentration and absorbance (y=−0.2099x+0.4179), anti-oxidation activity of each sample was evaluated by converting it into Trolox equivalent amount. Regarding samples in the table, 5-CQA is manufactured by Tokyo Chemical Industry and ferulic acid is manufactured by Tokyo Chemical Industry.
1 mM ethanol solution of DPPH is prepared (39.4 mg/100 ml). After dissolution, DPPH is immediately used in the test (preparation when used).
By dissolving each sample in 50% v/v ethanol, its 100 mg/l solution is prepared.
A 4 ml portion of the above-mentioned sample solution and 1 ml of the DPPH solution are added to a test tube, followed by stirring and allowing to stand still for 30 minutes, and then absorbance at a wavelength of 520 nm is measured.
By applying absorbance of the sample to the calibration curve, Trolox equivalent amount (mol) is calculated.

[2] = Deodorizing activity test (1) with tyrosinase as polyphenol oxidase; details: Tyrosinase 1 mg, sample 2 mg, sodium methyl mercaptan 15% aqueous solution 2 μl, room temperature 10 minutes, head space gas detection tube
Description: (§1) Tyrosinase (mfd. by SIGMA, 1 mg) or laccase (mfd. by Amano Enzyme, 1 mg) was added as a polyphenol oxidase to each (2 mg) of 5-CQA (mfd. by Tokyo Chemical Industry), ferulic acid (mfd. by Tokyo Chemical Industry) and ferulylquinic acid and dissolved therein, and then sodium methyl mercaptan (mfd. by Tokyo Chemical Industry, 15% aqueous solution) (2 μl) was added thereto as a malodor substance and sealed therein, followed by stirring at room temperature for 10 minutes. The amount of methyl mercaptan in the head space part was measured using a gas detection tube (GASTEC Corporation, #71H) and the deodorizing ratio was calculated in accordance with the following mathematical expression.
(§2) In this connection, a system to which each of CQA or FQA (2 mg) and polyphenol oxidase were not added was used as a control plot.
(§3) Deodorizing ratio (%)=100−(methyl mercaptan concentration of sample plot/methyl mercaptan concentration of control plot)×100

[3] = Deodorizing activity test (1) with laccase as polyphenol oxidase; details: Laccase 1 mg, sample 2 mg, sodium methyl mercaptan 15% aqueous solution 2 μl, room temperature 10 minutes, head space gas detection tube
Description: as §1, §2, §3

| Compound | Anti-oxidation activity (T. μmol/μmol) [1] | Deodorizing ratio (%) [2] | Deodorizing ratio (%) [3] |
| --- | --- | --- | --- |
| O=C(/C=C/c1ccc(O)c(O)c1)O[C@@H]1C[C@@](O)(C(=O)O)C[C@@H](O)[C@@H]1O [Example 5-CQA, 5-caffeoylquinic acid] | 1.03 T. μmol/μmol | 75% | 100% |
| COc1cc(/C=C/C(=O)O)ccc1O [Ferulic acid, ferulic acid] | 0.37 T. μmol/μmol | −10% | −18% |
| ferulylquinic acid | 0.35 T. μmol/μmol | −20% | −18% |
